What is called IC50 is the concentration at which inhibition is half-maximal.

Where a SMILES comes first, the peptide text is derived from it. [ ]: non-standard residue; d: D form. The star is where a group is joined. Fmoc = O=C(OCC1c2ccccc2-c2ccccc21)*; NMeF = CN[C@@H](Cc1ccccc1)C(=O)O; NMePhg = CN[C@H](C(=O)O)c1ccccc1; Cha = N[C@@H](CC1CCCCC1)C(=O)O

The first assay concerns the target T1, Ribonucleoside-diphosphate reductase RR1 (Homo sapiens, UniProt P23921+P31350+Q7LG56).
T1 sequence (P23921 whole entry): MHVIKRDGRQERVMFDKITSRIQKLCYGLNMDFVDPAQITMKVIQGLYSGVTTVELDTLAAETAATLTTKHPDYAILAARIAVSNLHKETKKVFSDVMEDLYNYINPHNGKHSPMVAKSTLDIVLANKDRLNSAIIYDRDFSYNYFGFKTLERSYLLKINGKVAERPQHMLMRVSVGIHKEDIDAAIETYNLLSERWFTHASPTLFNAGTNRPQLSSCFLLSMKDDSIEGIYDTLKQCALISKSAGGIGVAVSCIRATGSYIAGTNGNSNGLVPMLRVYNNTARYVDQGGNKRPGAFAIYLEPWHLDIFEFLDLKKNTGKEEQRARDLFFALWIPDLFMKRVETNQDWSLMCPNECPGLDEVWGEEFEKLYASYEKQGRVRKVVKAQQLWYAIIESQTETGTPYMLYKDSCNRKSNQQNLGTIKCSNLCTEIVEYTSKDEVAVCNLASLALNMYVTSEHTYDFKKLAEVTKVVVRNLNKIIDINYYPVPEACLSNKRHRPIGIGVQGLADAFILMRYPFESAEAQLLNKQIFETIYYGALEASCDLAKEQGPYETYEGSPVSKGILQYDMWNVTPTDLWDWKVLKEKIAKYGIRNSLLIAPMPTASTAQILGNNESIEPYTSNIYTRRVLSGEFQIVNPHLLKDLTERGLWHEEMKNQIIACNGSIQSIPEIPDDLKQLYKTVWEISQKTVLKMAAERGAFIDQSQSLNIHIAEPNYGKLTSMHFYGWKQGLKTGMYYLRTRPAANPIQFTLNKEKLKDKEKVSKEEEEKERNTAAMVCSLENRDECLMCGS
T1 sequence (Q7LG56 whole entry): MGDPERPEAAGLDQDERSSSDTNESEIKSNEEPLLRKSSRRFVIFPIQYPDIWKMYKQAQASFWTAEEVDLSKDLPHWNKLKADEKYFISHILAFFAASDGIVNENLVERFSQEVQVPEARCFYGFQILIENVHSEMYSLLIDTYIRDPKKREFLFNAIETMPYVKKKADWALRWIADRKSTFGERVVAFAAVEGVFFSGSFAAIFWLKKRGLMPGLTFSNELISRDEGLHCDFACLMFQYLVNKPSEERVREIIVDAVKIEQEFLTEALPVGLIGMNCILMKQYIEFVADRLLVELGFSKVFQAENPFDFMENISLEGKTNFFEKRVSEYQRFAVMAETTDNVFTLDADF
T1 sequence (P31350 whole entry): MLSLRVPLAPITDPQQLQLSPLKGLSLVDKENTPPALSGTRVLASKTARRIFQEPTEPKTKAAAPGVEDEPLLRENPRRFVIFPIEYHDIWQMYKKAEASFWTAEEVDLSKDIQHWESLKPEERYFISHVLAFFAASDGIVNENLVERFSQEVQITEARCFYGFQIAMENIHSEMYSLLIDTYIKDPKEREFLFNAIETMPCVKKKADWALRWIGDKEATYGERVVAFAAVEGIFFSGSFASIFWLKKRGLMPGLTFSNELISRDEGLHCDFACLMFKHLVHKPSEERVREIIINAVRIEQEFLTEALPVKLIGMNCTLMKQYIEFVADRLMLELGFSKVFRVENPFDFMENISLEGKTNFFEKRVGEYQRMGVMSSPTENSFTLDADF
The experiment in a line: (§1) Inhibition of mammalian ribonucleotide reductase in a standard dTTP-dependent GDP reductase assay. Type of assay: protein-complex assay.
Turning to Ac-FTLDADF-OH, the IC50 was found to be 13.3 µM.
`CC(C)[C@H](NC(=O)[C@H](Cc1c[nH]c2ccccc12)NC(=O)OCC1c2ccccc2-c2ccccc21)C(=O)N[C@@H](Cc1ccccc1)C(=O)N[C@@H](Cc1ccccc1)C(=O)O` (Fmoc-WVFF-OH): the IC50 was determined as 20 µM.
Take `O=C(O)C[C@H](NC(=O)[C@H](Cc1ccccc1)NC(=O)[C@H](Cc1c[nH]c2ccccc12)NC(=O)OCC1c2ccccc2-c2ccccc21)C(=O)N[C@@H](Cc1ccccc1)C(=O)O` (Fmoc-WFDF-OH): half-maximal inhibition (IC50) required 22 µM.
Consider `CC(C)C[C@H](NC(=O)[C@H](c1ccccc1)N(C)C(=O)OCC1c2ccccc2-c2ccccc21)C(=O)N[C@@H](CC(=O)O)C(=O)N[C@@H](CC1CCCCC1)C(=O)N[C@@H](CC(=O)O)C(=O)N[C@@H](Cc1ccccc1)C(=O)O` (Fmoc-[NMePhg]LD[Cha]DF-OH), for which the IC50 is 1.9 µM.

The target of a further assay is T2, Ribonucleoside-diphosphate reductase RR1 (Homo sapiens, UniProt P23921+Q7LG56+P31350).
T2 sequence (P23921 whole entry): T1 sequence (P23921 whole entry)
T2 sequence (Q7LG56 whole entry): T1 sequence (Q7LG56 whole entry)
T2 sequence (P31350 whole entry): T1 sequence (P31350 whole entry)
The description is as §1. It counts as protein-complex assay.
As to `CC(C)C[C@H](NC(=O)[C@H](Cc1ccccc1)N(C)C(=O)OCC1c2ccccc2-c2ccccc21)C(=O)N[C@@H](CCC(=O)O)C(=O)N[C@@H](CC1CCCCC1)C(=O)N[C@@H](CC(=O)O)C(=O)N[C@@H](Cc1ccccc1)C(=O)O` (Fmoc-[NMeF]LE[Cha]DF-OH), half-maximal inhibition (IC50) required 2.4 µM.
In turn, `CC(C)C[C@H](NC(=O)[C@H](Cc1ccccc1)N(C)C(=O)OCC1c2ccccc2-c2ccccc21)C(=O)N[C@@H](CC(=O)O)C(=O)N[C@@H](CC1CCCCC1)C(=O)N[C@@H](CC(=O)O)C(=O)N[C@@H](Cc1ccccc1)C(=O)O` (Fmoc-[NMeF]LD[Cha]DF-OH) registered an IC50 of 2.4 µM.

The values above are taken from ChEMBL document CHEMBL1137051, “More potent linear peptide inhibitors of mammalian ribonucleotide reductase” (Bioorg Med Chem Lett, 2004).
